Measurements reported in patent publication US11708353B2, “Inhibitors of prolyl-tRNA-synthetase” (The General Hospital Corporation, priority 2018, dated 2023).

system: wild-type 3D7 parasites; test: Antiparasitic activity in wild-type 3D7 parasites; type: cell-based; settings: Plasmodium falciparum, 3D7, read-out: EC50 in wild-type parasites
Description: (§1) P. falciparum parasite growth was determined using a fluorescence assay based on the SYBR Green I method according to previously reported protocols (see e.g., Johnson et al, Antimicrob. Agents Chemother. 2007, 51(6):1926-1933). P. falciparum parasites were seeded in 384-well plates at 1% hematocrit and 1% starting parasitemia. Growth was assessed by SYBR Green staining of parasite DNA after 72-hour exposure to compound. All dose-response assays were carried out with 12-point dilutions in technical triplicate. Compounds were dispensed with an HP D300 Digital Dispenser (Hewlett Packard, Palo Alto, Calif., USA). Fluorescence intensity measurements were performed on a SpectraMax M5 (Molecular Devices, Sunnyvale, Calif., USA) and analyzed in GraphPad Prism version 7 (GraphPad Software, La Jolla, Calif., USA) after background subtraction and normalization to control wells. EC50 values were determined using a four-parameter nonlinear regression curve fit from at least three assays and are represented as mean±standard deviation. Statistical significance was determined by the Mann Whitney test. […]

SMILES	EC50 [µM]
O=C(NC1Cc2ccccc2C1)c1nccnc1NC(=O)N1CCCCC1 [Compound 18]	0.078

system: HFG-tolerant 3D7 parasites; test: Antiparasitic activity in HFG-tolerant 3D7 parasites; type: cell-based; settings: Plasmodium falciparum, 3D7, read-out: EC50 in HFG-tolerant parasites
Description: as §1

SMILES	EC50 [µM]
O=C(NC1Cc2ccccc2C1)c1nccnc1NC(=O)N1CCCCC1 [Compound 18]	0.13

system: P. falciparum Dd2 wildtype; test: SYBR Green I asexual blood stage growth assay, Dd2 wildtype; type: cell-based; settings: Plasmodium falciparum, DD2, 72 h, read-out: P. falciparum Dd2 wildtype Asexual blood stage EC50 (nM)
Description: (§2) P. falciparum parasite growth was determined using a fluorescence assay based on the SYBR Green I method according to previously reported protocols (see e.g., Johnson et al, Antimicrob. Agents Chemother. 2007, 51(6):1926-1933). P. falciparum parasites were seeded in 384-well plates at 1% hematocrit and 1% starting parasitemia. Growth was assessed by SYBR Green staining of parasite DNA after 72-hour exposure to compound. All dose-response assays were carried out with 12-point dilutions in technical triplicate. Compounds were dispensed with an HP D300 Digital Dispenser (Hewlett Packard, Palo Alto, Calif., USA). Fluorescence intensity measurements were performed on a SpectraMax M5 (Molecular Devices, Sunnyvale, Calif., USA) and analyzed in GraphPad Prism version 7 (GraphPad Software, La Jolla, Calif., USA) after background subtraction and normalization to control wells. EC50 values were determined using a four-parameter nonlinear regression curve fit from at least three assays and are represented as mean±standard deviation. Statistical significance was determined by the Mann Whitney test.

SMILES	EC50 [nM]
O=C(CCCC(=O)NC1(C(=O)Nc2nccnc2C(=O)NC2Cc3ccccc3C2)CCCCC1)NCCOCCOCCNC(=O)COc1cccc2c1C(=O)N(C1CCC(=O)NC1=O)C2=O (stereo not drawn) [Compound 33]	8540

same assay, conditions: Plasmodium falciparum, DD2; 72-hour exposure, SYBR Green; read-out: P. falciparum Dd2 wildtype Asexual blood stage EC50

SMILES	EC50 [nM]
O=C(C[C@H]1NCCC[C@@H]1OC(=O)NCCCCNC(=O)Nc1nccnc1C(=O)NC1Cc2ccccc2C1)Cn1cnc2cc(Br)c(Cl)cc2c1=O [Compound 2]	> 10000
CC(C)(C)OC(=O)N1CCC[C@H]1C(=O)NCCCCNC(=O)Nc1nccnc1C(=O)NC1Cc2ccccc2C1 [Compound 3]	> 10000
O=C(NCCCCNC(=O)[C@@H]1CCCN1)Nc1nccnc1C(=O)NC1Cc2ccccc2C1 [Compound 4]	> 10000
CC(C)(C)OC(=O)N1CCCCC1C(=O)Nc1nccnc1C(=O)NC1Cc2ccccc2C1 (stereo not drawn) [Compound 6]	3790
Nc1nccnc1C(=O)NCc1ccc(Cl)cc1 [Compound 12]	> 10000
O=C(NC1Cc2ccccc2C1)c1nccnc1NC(=O)N(C1CCCCC1)C1CCCCC1 [Compound 13]	4940
O=C(NC1Cc2ccccc2C1)c1nccnc1NC(=O)C1CCCCC1 [Compound 16]	544
O=C(NC1Cc2ccccc2C1)c1nccnc1NS(=O)(=O)C1CCCCC1 [Compound 17]	> 10000
O=C(NC1Cc2ccccc2C1)c1nccnc1NC(=O)N1CCCCC1 [Compound 18]	63
O=C(NC1Cc2ccccc2C1)c1nccnc1N(C(=O)C1CCCCC1)C(=O)C1CCCCC1 [Compound 22]	627
CC(C)(C)OC(=O)N[C@H]1CC[C@@H](C(=O)Nc2nccnc2C(=O)NC2Cc3ccccc3C2)CC1 [Compound 23]	386
O=c1[nH]c2nccnc2c(=O)n1C1Cc2ccccc2C1 [Compound 25]	> 10000
Nc1nccnc1C(=O)NC1CCCCC1 [Compound 29]	> 10000
CC(C)(C)OC(=O)NC1(C(=O)Nc2nccnc2C(=O)NC2Cc3ccccc3C2)CCCCC1 [Compound 32]	9520
CN(C(=O)c1nccnc1N)C1Cc2ccccc2C1 [Compound 38]	> 10000
O=C(Nc1nccnc1C(=O)NC1Cc2ccccc2C1)NC12CC3CC(CC(C3)C1)C2 [Compound 39]	> 10000

Other lines, results leading:

EC50 [nM]	SMILES
> 10000	NCCCCNC(=O)Nc1nccnc1C(=O)NC1Cc2ccccc2C1 [Compound 1]
> 10000	O=C(O)CCCC(=O)Nc1nccnc1C(=O)NC1Cc2ccccc2C1 [Compound 5]
2990	O=C(NC1Cc2ccccc2C1)c1nccnc1NC(=O)C1CCCCN1 (stereo not drawn) [Compound 7]
499	CC(C)N(C(=O)Nc1nccnc1C(=O)NC1Cc2ccccc2C1)C(C)C [Compound 8]
3540	O=C(NC1Cc2ccccc2C1)c1nccnc1NC(=O)C1CCC1 [Compound 9]
1830	CN1CCN(C(=O)Nc2nccnc2C(=O)NC2Cc3ccccc3C2)CC1 [Compound 10]
6200	O=C(NC1Cc2ccccc2C1)c1nccnc1NC(=O)N1CCCC(C(=O)O)C1 (stereo not drawn) [Compound 11]
73	C[C@@H]1CCC[C@H](C)N1C(=O)Nc1nccnc1C(=O)NC1Cc2ccccc2C1 [Compound 14]
> 10000	Nc1nccnc1C(=O)NC1Cc2ccccc2C1 [Compound 15]
173	CC1(C(=O)Nc2nccnc2C(=O)NC2Cc3ccccc3C2)CCCCC1 [Compound 19]
> 10000	O=C(NC1Cc2ccccc2C1)c1nccnc1NC(=O)C1CCOCC1 [Compound 20]
1350	O=C(NC1Cc2ccccc2C1)c1nccnc1NC(=O)C1(O)CCCCC1 [Compound 21]
> 10000	O=C(Nc1nccnc1C(=O)NC1Cc2ccccc2C1)c1ccccc1 [Compound 24]
9960	NC(=O)Nc1nccnc1C(=O)NC1Cc2ccccc2C1 [Compound 26]
> 10000	O=C(O)c1nccnc1C(=O)NC1Cc2ccccc2C1 [Compound 27]
> 10000	O=C(NC1CCCCC1)c1nccnc1C(=O)NC1Cc2ccccc2C1 [Compound 28]
9540	O=C(NC1CCCCC1)c1nccnc1NC(=O)C1Cc2ccccc2C1 [Compound 30]
> 10000	CNc1nccnc1C(=O)NC1Cc2ccccc2C1 [Compound 31]
4840	NC1(C(=O)Nc2nccnc2C(=O)NC2Cc3ccccc3C2)CCCCC1 [Compound 34]
8270	O=C(NC1Cc2ccccc2C1)c1nccnc1NC(=S)NC1CCCCC1 [Compound 35]
> 10000	O=C(Nc1nccnc1C(=O)NC1Cc2ccccc2C1)NC1CCCCC1 [Compound 36]
> 10000	O=C(NC1Cc2ccccc2C1)c1nccnc1NCC1CCCCC1 [Compound 37]

target: T1, Plasmodium falciparum cytoplasmic prolyl tRNA synthetase (PfcPRS) (Plasmodium falciparum, UniProt Q8I5R7); test: Thermal shift (differential scanning fluorimetry) assay; type: binding; settings: not given
T1 sequence (Q8I5R7 1-746): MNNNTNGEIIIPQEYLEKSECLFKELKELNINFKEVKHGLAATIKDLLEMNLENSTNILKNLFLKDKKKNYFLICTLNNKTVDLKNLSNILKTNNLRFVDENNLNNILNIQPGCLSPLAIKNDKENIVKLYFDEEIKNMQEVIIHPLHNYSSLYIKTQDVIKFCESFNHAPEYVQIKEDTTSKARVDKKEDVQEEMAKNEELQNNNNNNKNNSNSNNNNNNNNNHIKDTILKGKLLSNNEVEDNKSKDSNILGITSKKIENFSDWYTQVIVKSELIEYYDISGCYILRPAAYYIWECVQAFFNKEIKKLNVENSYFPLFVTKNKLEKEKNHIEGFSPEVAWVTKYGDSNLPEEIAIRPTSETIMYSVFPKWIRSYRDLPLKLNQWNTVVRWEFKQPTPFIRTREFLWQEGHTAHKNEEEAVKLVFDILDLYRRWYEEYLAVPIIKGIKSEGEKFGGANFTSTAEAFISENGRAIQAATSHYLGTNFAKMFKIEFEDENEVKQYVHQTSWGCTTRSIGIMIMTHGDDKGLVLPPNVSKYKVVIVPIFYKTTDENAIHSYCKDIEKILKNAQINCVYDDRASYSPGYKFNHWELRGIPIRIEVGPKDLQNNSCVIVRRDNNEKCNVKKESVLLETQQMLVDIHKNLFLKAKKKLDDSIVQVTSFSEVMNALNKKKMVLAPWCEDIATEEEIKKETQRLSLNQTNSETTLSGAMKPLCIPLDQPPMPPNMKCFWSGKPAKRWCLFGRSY
Description: Thermal shift assays were performed in tetricate as previously described (Hewitt et al., 2016). 12.5 μL solutions of 0.14 mg/mL purified recombinant Plasmodium falciparum cytoplasmic prolyl tRNA synthetase (PfcPRS) in a buffer containing […] test compounds (1 mM Compound 18+1 mM Proline; 1 mM Compound 18+0 mM Proline; or DMSO vehicle control), 25 mM HEPES, pH 7.0, 100 mM NaCl, 5 v/v % glycerol, 1 mM TCEP, and optionally 1 mM Proline were incubated at 37° C. for 2 hours in 96 well PCR plates. To this was added 2.5 μL 8× SYRPO Orange Dye (Applied Biosystems 4461141) and 5 μL Protein Thermal Shift Buffer (Applied Biosystems 4461335). Protein stability for protein samples containing the test compounds was compared with apo protein samples by measuring an increase in fluorescence as detected on an Applied Biosystems SDS 7500 Fast qPCR Thermocycler from 25° C. to 99° C. at half degree increments.

SMILES	Binding mode to PfcPRS relative to proline
O=C(NC1Cc2ccccc2C1)c1nccnc1NC(=O)N1CCCCC1 [Compound 18]	binds PfcPRS in proline-uncompetitive fashion

same assay, conditions: with 1 mM vs 0 mM Proline, FIG. 3C

SMILES	Effect of proline on binding to PfcPRS (differential scanning fluorimetry)
O=C(NC1Cc2ccccc2C1)c1nccnc1NC(=O)N1CCCCC1 [Compound 18]	Pro potentiates Compound 18 binding to PfcPRS

system: P. falciparum Dd2 (10× resistence to halofuginone); test: SYBR Green I asexual blood stage growth assay, Dd2 10x halofuginone-resistant; type: cell-based; settings: Plasmodium falciparum, DD2, 72 h, read-out: P. falciparum Dd2 (10× resistence to halofuginone) Asexual blood stage IC50 (nM)
Description: as §2

SMILES	IC50 [nM]
O=C(NC1Cc2ccccc2C1)c1nccnc1NC(=O)C1CCCCC1 [Compound 16]	1160
O=C(NC1Cc2ccccc2C1)c1nccnc1NC(=O)N1CCCCC1 [Compound 18]	130

system: eIF2α phosphorylation; test: not given; settings: cited from earlier work

SMILES	eIF2α phosphorylation
Nc1ncnc2c1ncn2[C@@H]1O[C@H](COS(=O)(=O)NC(=O)[C@@H]2CCCN2)[C@@H](O)[C@H]1O [ProSA, L-prolyl-sulfamoyl adenosine]	induces eIF2α phosphorylation

system: P. falciparum Dd2 (>100× resistence to halofuginone); test: SYBR Green I asexual blood stage growth assay, Dd2 >100x halofuginone-resistant; type: cell-based; settings: Plasmodium falciparum, DD2, 72 h, read-out: P. falciparum Dd2 (>100× resistence to halofuginone) Asexual blood stage IC50 (nM)
Description: as §2

SMILES	IC50 [nM]
O=C(NC1Cc2ccccc2C1)c1nccnc1NC(=O)N1CCCCC1 [Compound 18]	74

system: P. falciparum; test: not given; settings: read-out: EC50 against P. falciparum in whole-cell assays; cited from earlier work

SMILES	EC50 [µM]
Nc1ncnc2c1ncn2[C@@H]1O[C@H](COS(=O)(=O)NC(=O)[C@@H]2CCCN2)[C@@H](O)[C@H]1O [ProSA, L-prolyl-sulfamoyl adenosine]	0.097
